Test results published in US11566007B2, “Ras inhibitors” (Revolution Medicines, Inc., priority 2019, dated 2023).
pEC50, pIC50: −log10 of the molar value. Where two headings read alike, the source gives them in different places.

How the values were obtained:
NCI-H358 (K-Ras G12C) = assay: CellTiter-Glo cell viability assay, NCI-H358; assay type: cell-based, human; conditions: NCI-H358, 5-day treatment, class symbols, read-out: Additional H358 Cell Viability assay data (K-Ras G12C, IC50)
Method: Note—The following protocol describes a procedure for monitoring cell viability of K-Ras mutant cancer cell lines in response to a compound of the invention. Other RAS isoforms may be employed, though the number of cells to be seeded will vary based on cell line used.
Test compounds (132.5 nL) were directly dispensed into the assay plates containing cells. […] On day 5, assay plates and their contents were equilibrated to room temperature for approximately 30 minutes. […] Luminescence was measured using the PerkinElmer Enspire. Data were normalized by the following: (Sample signal/Avg. DMSO)*100. The data were fit using a four-parameter logistic fit.

[1] = tested on: NCI-H358 cells (K-Ras G12C); assay: Potency assay: pERK in NCI-H358 cells; assay type: cell-based, human; conditions: Homo sapiens, NCI-H358; H358 KRAS G12C; read-out: pERK EC50
Method: The purpose of this assay is to measure the ability of test compounds to inhibit K-Ras in cells. […] This procedure measures a decrease in cellular pERK in response to test compounds.
NCI-H358 cells were grown and maintained using media and procedures recommended by the ATCC. On the day prior to compound addition, cells were plated in 384-well cell culture plates (40 μl/well) and grown overnight in a 37° C., 5% CO2 incubator. Test compounds were prepared in 10, 3-fold dilutions in DMSO, with a high concentration of 10 mM. On the day of assay, 40 nL of test compound was added to each well of cell culture plate using an Echo550 liquid handler (LabCyte®). Concentrations of test compound were tested in duplicate. After compound addition, cells were incubated 4 hours at 37° C., 5% CO2. Following incubation, culture medium was removed and cells were washed once with phosphate buffered saline.
In some experiments, cellular pERK level was determined using the AlphaLISA SureFire Ultra p-ERK1/2 Assay Kit (PerkinElmer). Cells were lysed in 25 μL lysis buffer, with shaking at 600 RPM at room temperature. […] After a 2-hour incubation in the dark, 5 μL donor mix was added, plate was sealed, and incubated 2 hours at room temperature. Signal was read on an Envision plate reader (PerkinElmer) using standard AlphaLISA settings. Analysis of raw data was carried out in Excel (Microsoft) and Prism (GraphPad). Signal was plotted vs. the decadal logarithm of compound concentration, and IC50 was determined by fitting a 4-parameter sigmoidal concentration response model.
In other experiments, cellular pERK was determined by In-Cell Western. […] Fixed cells were washed 4 times for 5 minutes with TBS containing 0.1% Triton X-100 (TBST) and then blocked with 100 μL Odyssey blocking buffer (LI-COR) for 60 minutes at room temperature. […] Cells were washed 4 times for 5 minutes with TBST. Secondary antibody (IR-800CW rabbit, LI-COR, diluted 1:800) and DNA stain DRAQS (LI-COR, diluted 1:2000) were added and incubated 1-2 hours at room temperature. Cells were washed 4 times for 5 minutes with TBST. Plates were scanned on a Li-COR Odyssey CLx Imager. Analysis of raw data was carried out in Excel (Microsoft) and Prism (Graph Pad). Signal was plotted vs. the decadal logarithm of compound concentration, and IC50 was determined by fitting a 4-parameter sigmoidal concentration response model.

| SMILES | pIC50 (NCI-H358 (K-Ras G12C); Homo sapiens, NCI-H358, 120 h) | pEC50 [1] | pIC50 (NCI-H358 (K-Ras G12C)) |
| --- | --- | --- | --- |
| C=CC(=O)N1CC[C@H](C(=O)N(C)[C@H](C(=O)N[C@H]2Cc3cc(O)cc(c3)-c3ccc4c(c3)c(c(-c3ccc5c(c3)OCCN5C)n4CC)CC(C)(C)COC(=O)[C@@H]3CCCN(N3)C2=O)C(C)C)C1 [Example A50] | 6.00 to 7.00 | > 5.30 | – |
| CCn1c(-c2ccccc2COC)c2c3cc(ccc31)-c1cc(O)cc(c1)C[C@H](NC(=O)[C@H](C(C)C)N(C)C(=O)[C@H]1CCN(C(=O)/C=C/CN(C)C)C1)C(=O)N1CCC[C@H](N1)C(=O)OCC(C)(C)C2 [Example A79] | 7.00 to 8.00 | > 5.30 | – |
| C=CC(=O)N1CC[C@H](C(=O)N(C)[C@H](C(=O)N[C@H]2Cc3cc(O)cc(c3)-c3ccc4c(c3)c(c(-c3ccccc3)n4CC)CC(C)(C)COC(=O)[C@@H]3CCCN(N3)C2=O)C(C)C)C1 [Example A23] | 6.00 to 7.00 | > 5.30 | – |
| C=CC(=O)N1C[C@H](C)[C@H](C(=O)N(C)[C@H](C(=O)N[C@H]2Cc3cc(O)cc(c3)-c3ccc4c(c3)c(c(-c3ccccc3CN(C)C)n4CC)CC(C)(C)COC(=O)[C@@H]3CCCN(N3)C2=O)C2CCCC2)C1 [Example A43] | 7.00 to 8.00 | > 5.30 | – |
| C=CC(=O)N1CC[C@H](C(=O)N(C)[C@H](C(=O)N[C@H]2Cc3cc(O)cc(c3)-c3ccc4c(c3)c(c(-c3cc(F)cnc3COC)n4CC)CC(C)(C)COC(=O)[C@@H]3CCCN(N3)C2=O)C(C)C)C1 [Example A82] | 7.00 to 8.00 | > 5.30 | – |
| CCn1c(-c2ccccc2CCOC)c2c3cc(ccc31)-c1cc(O)cc(c1)C[C@H](NC(=O)[C@H](C(C)C)N(C)C(=O)[C@H]1CCN(C(=O)C#CCN(C)C)C1)C(=O)N1CCC[C@H](N1)C(=O)OCC(C)(C)C2 [Example A38] | > 8.00 | > 5.30 | – |
| C=CC(=O)N1CC[C@H](C(=O)N(C)[C@H](C(=O)N[C@H]2Cc3cc(O)cc(c3)-c3ccc4c(c3)c(c(-c3ccccc3OC)n4CC)CC(C)(C)COC(=O)[C@@H]3CCCN(N3)C2=O)C(C)C)C1 [Example A17] | 6.00 to 7.00 | > 5.30 | – |
| C=CC(=O)N1CC[C@H](C(=O)N(C)[C@H](C(=O)N[C@H]2Cc3cc(N)cc(c3)-c3ccc4c(c3)c(c(-c3ccccc3CCOC)n4CC)CC(C)(C)COC(=O)[C@@H]3CCCN(N3)C2=O)C(C)C)C1 [Example A2, (2S)-N-[(8S,14S)-4-amino-22-ethyl-21-[2-(2-methoxyethyl)phenyl]-18,18-dimethyl-9,15-dioxo-16-oxa-10,22,28-triazapentacyclo[18.5.2.1^2,^6.1^10,^14.0^23,^27]nonacosa-1(26),2,4,6(29),20,23(27),24-heptaen-8-yl]-3-methyl-2-{N-methyl-1-[(3S)-1-(prop-2-enoyl)pyrrolidin-3-yl]formamido}butanamide] | < 6.00 | > 5.30 | – |
| C=CC(=O)N1CC[C@H](C(=O)N(C)[C@H](C(=O)N[C@H]2Cc3cc(OC(=O)CCN4CCN(C)CC4)cc(c3)-c3ccc4c(c3)c(c(-c3ccccc3CCOC)n4CC)CC(C)(C)COC(=O)[C@@H]3CCCN(N3)C2=O)C(C)C)C1 [Example A7] | 6.00 to 7.00 | > 5.30 | – |
| C=CC(=O)N1CC[C@H](C(=O)N(C)[C@H](C(=O)N[C@H]2Cc3cc(O)cc(c3)-c3ccc4c(c3)c(c(-c3cccnc3[C@H](C)OC)n4CC)CC(C)(C)COC(=O)[C@@H]3CCCN(N3)C2=O)C(C)C)C1 (atropisomer, axis not shown; (M)) [Example A75, (2S)-N-[(8S,14S,20M)-22-ethyl-4-hydroxy-21-{2-[(1S)-1-methoxyethyl]pyridin-3-yl}-18,18-dimethyl-9,15-dioxo-16-oxa-10,22,28-triazapentacyclo[18.5.2.1^2,^6.1^10,^14.0^23,^27]nonacosa-1(26),2,4,6(29),20,23(27),24-heptaen-8-yl]-3-methyl-2-{N-methyl-1-[(3S)-1-(prop-2-enoyl)pyrrolidin-3-yl]formamido}butanamide] | 7.00 to 8.00 | > 5.30 | > 8.00 |
| C=CC(=O)N1CC[C@H](C(=O)N(C)[C@H](C(=O)N[C@H]2Cc3cc(O)cc(c3)-c3ccc4c(c3)c(c(-c3ccc5c(c3)CCN(C)C5)n4CC)CC(C)(C)COC(=O)[C@@H]3CCCN(N3)C2=O)C(C)C)C1 [Example A40] | 7.00 to 8.00 | > 5.30 | – |
| C=CC(=O)N1CC[C@@]2(CCN([C@H](C(=O)N[C@H]3Cc4cc(O)cc(c4)-c4ccc5c(c4)c(c(-c4ccccc4CCOC)n5CC)CC(C)(C)COC(=O)[C@@H]4CCCN(N4)C3=O)C(C)C)C2=O)C1 [Example A68] | 6.00 to 7.00 | > 5.30 | – |
| C=CC(=O)N1CC[C@H](C(=O)N(C)[C@H](C(=O)N[C@H]2Cc3cc(O)cc(c3)-c3ccc4c(c3)c(c(-c3cccnc3)n4CC)CC(C)(C)COC(=O)[C@@H]3CCCN(N3)C2=O)C(C)C)C1 [Example A45] | 7.00 to 8.00 | > 5.30 | – |

Second part, led by results:

| pIC50 (NCI-H358 (K-Ras G12C); Homo sapiens, NCI-H358, 120 h) | pEC50 [1] | SMILES | pIC50 (NCI-H358 (K-Ras G12C)) |
| --- | --- | --- | --- |
| 6.00 to 7.00 | > 5.30 | CCn1c(-c2ccccc2CCOC)c2c3cc(ccc31)-c1cc(O)cc(c1)C[C@H](NC(=O)[C@H](C(C)C)N(C)C(=O)C1CCN(C(=O)/C=C/CN(C)C)CC1)C(=O)N1CCC[C@H](N1)C(=O)OCC(C)(C)C2 [Example A19] | – |
| 6.00 to 7.00 | > 5.30 | CCn1c(-c2cccnc2COC)c2c3cc(ccc31)-c1cc(O)cc(c1)C[C@H](NC(=O)[C@H](C(C)C)N(C)C(=O)C1CN(C(=O)/C=C/CN(C)C)C1)C(=O)N1CCC[C@H](N1)C(=O)OCC(C)(C)C2 [Example A71, (2S)-2-(1-{1-[(2E)-4-(dimethylamino)but-2-enoyl]azetidin-3-yl}-N-methylformamido)-N-[(8S,14S)-22-ethyl-4-hydroxy-21-[2-(methoxymethyl)pyridin-3-yl]-18,18-dimethyl-9,15-dioxo-16-oxa-10,22,28-triazapentacyclo[18.5.2.1^2,^6.1^10,^14.0^23,^27]nonacosa-1(26),2,4,6(29),20,23(27),24-heptaen-8-yl]-3-methylbutanamide] | – |
| 7.00 to 8.00 | > 5.30 | C=CC(=O)N1C[C@H](C)[C@H](C(=O)N(C)[C@H](C(=O)N[C@H]2Cc3cc(O)cc(c3)-c3ccc4c(c3)c(c(-c3ccccc3CN(C)C)n4CC)CC(C)(C)COC(=O)[C@@H]3CCCN(N3)C2=O)C(C)C)C1 [Example A52] | – |
| < 6.00 | > 5.30 | C=CC(=O)N1CC[C@H](C(=O)N(C)[C@H](C(=O)N[C@H]2Cc3cc(O)cc(c3)-c3ccc4c(c3)c(c(-c3ccc(CC(=O)O)cc3)n4CC)CC(C)(C)COC(=O)[C@@H]3CCCN(N3)C2=O)C(C)C)C1 [Example A21] | – |
| 7.00 to 8.00 | > 5.30 | C=CC(=O)N1CC[C@H](C(=O)N(C)[C@H](C(=O)N[C@H]2Cc3cc(O)cc(c3)-c3ccc4c(c3)c(c(C3=C(COC)CCCC3)n4CC)CC(C)(C)COC(=O)[C@@H]3CCCN(N3)C2=O)C(C)C)C1 [Example A64] | – |
| 7.00 to 8.00 | > 5.30 | CCn1c(-c2cccnc2COC)c2c3cc(ccc31)-c1cc(O)cc(c1)C[C@H](NC(=O)[C@H](C(C)C)N(C)C(=O)[C@H]1CCN(C(=O)/C=C/CN(C)C)C1)C(=O)N1CCC[C@H](N1)C(=O)OCC(C)(C)C2 [Example A54, (2S)-2-{1-[(3S)-1-[(2E)-4-(dimethylamino)but-2-enoyl]pyrrolidin-3-yl]-N-methylformamido}-N-[(8S,14S)-22-ethyl-4-hydroxy-21-[2-(methoxymethyl)pyridin-3-yl]-18,18-dimethyl-9,15-dioxo-16-oxa-10,22,28-triazapentacyclo[18.5.2.1^2,^6.1^10,^14.0^23,^27]nonacosa-1(26),2,4,6(29),20,23(27),24-heptaen-8-yl]-3-methylbutanamide] | – |
